Results published in patent US10030006B2, “Coumarin based Hsp90 inhibitors with urea and ether substituents” (University of Kansas, priority 2013, dated 2018).
Where two headings read alike, the source gives them in different places. Each block holds one compound with its values, some of them ahead of it.

Assays:
Type in all cases: cell-based
BCPAP = assay: Anti-proliferation assay, BCPAP; settings: Thyroid
Experimental: Cells were maintained in a 1:1 mixture of Advanced DMEM/F12 (Gibco) supplemented with non-essential amino acids, L-glutamine (2 mM), streptomycin (500 μg/mL), penicillin (100 units/mL), and 10% FBS. Cells were grown to confluence in a humidified atmosphere (37° C., 5% CO2), seeded (2000/well, 100 μL) in 96-well plates, and allowed to attach overnight. Compound at varying concentrations in DMSO (1% DMSO final concentration) was added, and cells were returned to the incubator for 72 h. At 72 h, the number of viable cells was determined using an MTS/PMS cell proliferation kit (Promega) per the manufacturer's instructions. Cells incubated in 1% DMSO were used at 100% proliferation, and values were adjusted accordingly. IC50 values were calculated from separate experiments performed in triplicate using GraphPad Prism.

[1] = tested on: SKBr3 (estrogen receptor negative, Her2 over-expressing breast cancer cells); assay: Anti-proliferation assay (MTS/PMS, 72 h), SKBr3; settings: Breast Cancer, read-out: IC50 SKBr3
JMAR = assay: Anti-proliferation assay, JMAR; settings: HSNCC
How it was run: (§1)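 Seeding density 2000 cells/well; 72 h treatment at varying concentrations, DMSO held at 1%. Viability determined by MTS/PMS kit, with vehicle-treated cells defining full proliferation, and IC50 calculated across separate triplicate experiments.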

DRO81-1 = assay: Anti-proliferation assay, DRO81-1; settings: Thyroid
How it was run: as §1

PC-3 = assay: Anti-proliferation assay, PC-3; settings: Prostate Cancer
How it was run: as §1

[2] = tested on: MCF-7 (estrogen receptor positive breast cancer cells); assay: Anti-proliferation assay (MTS/PMS, 72 h), MCF-7; settings: Breast Cancer, read-out: IC50 MCF-3
MDAMB231 = assay: Anti-proliferation assay, MDAMB231; settings: Tri-Neg
How it was run: as §1

MDA1986 = assay: Anti-proliferation assay, MDA1986; settings: HSNCC
How it was run: as §1

HCT-116 = assay: Anti-proliferation assay, HCT-116
How it was run: as §1

A-549 = assay: Anti-proliferation assay, A-549
How it was run: as §1

MRC5 = assay: Anti-proliferation assay, MRC5 (normal); settings: Homo sapiens
How it was run: as §1

HMLE = assay: Anti-proliferation assay, HMLE (normal); settings: HMLE
How it was run: as §1

[3] = Homo sapiens, BCPAP, Table 8, biphenyl ureas
[4] = Homo sapiens, SK-BR-3, Table 8, biphenyl ureas
[5] = Homo sapiens, PC-3, Table 8, biphenyl ureas
[6] = Homo sapiens, MCF7, Table 8, biphenyl ureas
[7] = Homo sapiens, MDA-MB-231, Table 8, biphenyl ureas
[8] = MDA1986, Table 8, biphenyl ureas
[9] = Homo sapiens, HCT-116, Table 8, biphenyl ureas
[10] = Homo sapiens, A549, Table 8, biphenyl ureas
[11] = Homo sapiens, BCPAP, Table 6, substituted phenyl ureas
[12] = Homo sapiens, SK-BR-3, Table 6, substituted phenyl ureas
[13] = JMAR, Table 6, substituted phenyl ureas
[14] = Table 6, substituted phenyl ureas
[15] = Homo sapiens, PC-3, Table 6, substituted phenyl ureas
[16] = MRC5, Table 6, substituted phenyl ureas
[17] = Homo sapiens, MCF7, Table 6, substituted phenyl ureas
[18] = Homo sapiens, MDA-MB-231, Table 6, substituted phenyl ureas
[19] = MDA1986, Table 6, substituted phenyl ureas
[20] = Homo sapiens, HCT-116, Table 6, substituted phenyl ureas
[21] = Homo sapiens, A549, Table 6, substituted phenyl ureas
[22] = Table 7, prenylated phenyl ureas

IC50 ([1]; Table 9, non-aryl ureas): 490 ± 70 nM | IC50 (PC-3; Table 9, non-aryl ureas): 1120 ± 50 nM | IC50 ([2]; Table 9, non-aryl ureas): 540 ± 10 nM | IC50 (MDAMB231; Table 9, non-aryl ureas): 4300 nM | IC50 (HCT-116; Table 9, non-aryl ureas): 960 ± 160 nM | IC50 (A-549; Table 9, non-aryl ureas): 870 ± 210 nM
SMILES: Cc1c(OC2CCN(C)CC2)ccc2cc(NC(=O)NC(c3ccccc3)c3ccccc3)c(=O)oc12 [drawing 162]
IC50 (BCPAP; Table 9, non-aryl ureas): 5760 nM | IC50 (JMAR; Table 9, non-aryl ureas): 5900 nM | IC50 (DRO81-1; Table 9, non-aryl ureas): 1300 nM | IC50 (MDA1986; Table 9, non-aryl ureas): 7100 nM

IC50 [1, 4]: 170 nM | IC50 (PC-3; [5]): 470 nM | IC50 [2, 6]: 200 nM | IC50 (MDAMB231; [7]): 610 nM | IC50 (HCT-116; [9]): 460 nM | IC50 (A-549; [10]): 470 nM
SMILES: COc1cccc(-c2cc(NC(=O)Nc3cc4ccc(OC5CCN(C)CC5)c(C)c4oc3=O)ccc2OC)c1 [OMe, OMe, 1-(3′,6-dimethoxy-[1,1′-biphenyl]-3-yl)-3-(8-methyl-7-((1-methylpiperidin-4-yl)oxy)-2-oxo-2H-chromen-3-yl)urea]
IC50 (BCPAP; [3]): 390 nM | IC50 (JMAR; JMAR, Table 8, biphenyl ureas): 500 nM | IC50 (DRO81-1; Table 8, biphenyl ureas): 480 nM | IC50 (MRC5; MRC5, Table 8, biphenyl ureas): 4300 nM | IC50 (MDA1986; [8]): 1390 nM | IC50 (HMLE; Table 8, biphenyl ureas): 1600 nM

IC50 [1, 12]: 580 nM | IC50 (PC-3; [15]): 410 nM | IC50 [2, 17]: 560 nM | IC50 (MDAMB231; [18]): 690 nM | IC50 (HCT-116; [20]): 530 nM | IC50 (A-549; [21]): 490 nM
SMILES: CCc1ccc(NC(=O)Nc2cc3ccc(OC4CCN(C)CC4)c(C)c3oc2=O)cc1 [p-CH2CH3, 1-(4-ethylphenyl)-3-(8-methyl-7-((1-methylpiperidin-4-yl)oxy)-2-oxo-2H-chromen-3-yl)urea]
IC50 (BCPAP; [11]): 4360 nM | IC50 (JMAR; [13]): 1030 nM | IC50 (DRO81-1; [14]): 290 nM | IC50 (MRC5; [16]): 2600 nM | IC50 (MDA1986; [19]): 1400 nM | IC50 (HMLE; [14]): 1200 nM

IC50 ([1]; Homo sapiens, SK-BR-3, Table 7, prenylated phenyl ureas): 540 nM | IC50 (PC-3; Homo sapiens, PC-3, Table 7, prenylated phenyl ureas): 380 nM | IC50 ([2]; Homo sapiens, MCF7, Table 7, prenylated phenyl ureas): 490 nM | IC50 (MDAMB231; Homo sapiens, MDA-MB-231, Table 7, prenylated phenyl ureas): 750 nM | IC50 (HCT-116; Homo sapiens, HCT-116, Table 7, prenylated phenyl ureas): 340 nM | IC50 (A-549; Homo sapiens, A549, Table 7, prenylated phenyl ureas): 380 nM
SMILES: CC(=O)Oc1ccc(NC(=O)Nc2cc3ccc(OC4CCN(C)CC4)c(C)c3oc2=O)cc1CC=C(C)C [OAc, 4-(3-(8-methyl-7-((1-methylpiperidin-4-yl)oxy)-2-oxo-2H-chromen-3-yl)ureido)-2-(3-methylbut-2-en-1-yl)phenyl acetate]
IC50 (BCPAP; Homo sapiens, BCPAP, Table 7, prenylated phenyl ureas): 129 nM | IC50 (JMAR; JMAR, Table 7, prenylated phenyl ureas): 870 nM | IC50 (DRO81-1; [22]): 530 nM | IC50 (MRC5; MRC5, Table 7, prenylated phenyl ureas): 1800 nM | IC50 (MDA1986; MDA1986, Table 7, prenylated phenyl ureas): 1320 nM | IC50 (HMLE; [22]): 7200 nM

IC50 [1, 4]: 390 nM | IC50 (PC-3; [5]): 600 nM | IC50 [2, 6]: 290 nM | IC50 (MDAMB231; [7]): 95 nM | IC50 (HCT-116; [9]): 420 nM | IC50 (A-549; [10]): 410 nM
SMILES: COc1ccc(NC(=O)Nc2cc3ccc(OC4CCN(C)CC4)c(C)c3oc2=O)cc1-c1cccc(O)c1 [OMe, OH, 1-(3′-hydroxy-6-methoxy-[1,1′-biphenyl]-3-yl)-3-(8-methyl-7-((1-methylpiperidin-4-yl)oxy)-2-oxo-2H-chromen-3-yl)urea]
IC50 (BCPAP; [3]): 1940 nM | IC50 (JMAR; JMAR, Table 8, biphenyl ureas): 960 nM | IC50 (DRO81-1; Table 8, biphenyl ureas): 1200 nM | IC50 (MRC5; MRC5, Table 8, biphenyl ureas): 9800 nM | IC50 (MDA1986; [8]): 2800 nM | IC50 (HMLE; Table 8, biphenyl ureas): 3700 nM

IC50 [1, 12]: 410 nM | IC50 (PC-3; [15]): 160 nM | IC50 [2, 17]: 400 nM | IC50 (MDAMB231; [18]): 690 nM | IC50 (HCT-116; [20]): 270 nM | IC50 (A-549; [21]): 310 nM
SMILES: Cc1c(OC2CCN(C)CC2)ccc2cc(NC(=O)Nc3ccc(OC(F)(F)F)cc3)c(=O)oc12 [p-OCF3, 1-(8-methyl-7-((1-methylpiperidin-4-yl)oxy)-2-oxo-2H-chromen-3-yl)-3-(4-(trifluoromethoxy)phenyl)urea]
IC50 (BCPAP; [11]): 870 nM | IC50 (JMAR; [13]): 3600 nM | IC50 (DRO81-1; [14]): 230 nM | IC50 (MRC5; [16]): 3300 nM | IC50 (MDA1986; [19]): 870 nM | IC50 (HMLE; [14]): 4100 nM

IC50 [1, 12]: 4260 nM | IC50 (PC-3; [15]): 4500 nM | IC50 [2, 17]: 1300 nM | IC50 (MDAMB231; [18]): 2900 nM | IC50 (HCT-116; [20]): 209000 nM | IC50 (A-549; [21]): 13000 nM
SMILES: COc1cc(NC(=O)Nc2cc3ccc(OC4CCN(C)CC4)c(C)c3oc2=O)cc(OC)c1OC [3,4,5-trimethoxyl, 1-(8-methyl-7-((1-methylpiperidin-4-yl)oxy)-2-oxo-2H-chromen-3-yl)-3-(3,4,5-trimethoxyphenyl)urea]
IC50 (BCPAP; [11]): 1320 nM | IC50 (JMAR; [13]): 1700 nM | IC50 (DRO81-1; [14]): 14700 nM | IC50 (MRC5; [16]): > 25000 nM | IC50 (MDA1986; [19]): 9100 nM | IC50 (HMLE; [14]): > 25000 nM
